Data on three compounds can be found in patent publication US12129490B2, “Methods for generating hepatocytes and cholangiocytes from pluripotent stem cells” (UNIVERSITY HEALTH NETWORK, priority 2018, dated 2024).

Test [1] has as its system iPSC-derived cholangiocytes. In words: Cyst formation in 3D gel culture of iPSC-derived cholangiocytes. The format is cell-based, human. Particulars: normal iPSC-derived cholangiocytes. The text has this: After embedding in collagen/Matrigel culture, cyst formation was induced from the aggregates by the addition of forskolin for the first week of the two-week culture period (left). Without forskolin stimulation, the CF-iPSCs derived cholangiocytes formed branched ductal structure rather than hollow cysts (right).
CF-iPSCs derived cholangiocytes were maintained in the 3D gel conditions in the presence or absence of forskolin for the first week of the two weeks culture period (left graph). Normal iPS cells-derived cholangiocytes were maintained in the presence or absence of CFTR inhibitor for the first week of the two-week culture periods (right graph). […] Addition of the CFTR inhibitor to normal iPSC-derived cholangiocytes delayed cyst formation (right graph).
Both hiPSC lines generated hepatoblast populations with kinetics similar to those observed for wild type hPSCs (FIG. 24a, b). […] However, many of the cysts that developed from the patient iPSC we not completely hollow, but rather contained branched ductal structures (FIG. 19c).

Test [2] concerns the target T1, CFTR (Homo sapiens, UniProt P13569).
T1 construct: hPSC-derived cyst structures generated in 3D gels contain functional CFTR protein; endogenous in cells; host or cells: cysts from H9 hESC- and Y2-1 iPSC-derived cholangiocytes
In words: Forskolin-induced swelling assay on hPSC-derived cystic structures. Particulars: hPSC-derived cysts. The format is cell-based. The text has this: F/I stimulated cyst swelling was quantified using velocity imaging software. The total size of the cysts is normalized to that prior to F/I stimulation. Values are from three individual experiments.
With this assay, activation of the cAMP pathway by the addition of Forskolin/IBMX increases CFTR function resulting in fluid transport and swelling of the cyst. Swelling can be visualized following staining with calcein green, a cell-permeable fluorescent dye (FIG. 18a).

The subject of test [3] is other kinases. Particulars: in vitro kinase assays; cited from earlier work.
In test [4] the test system is hPSCs. In words: Definitive endoderm induction with CHIR99021 replacing Wnt3a, flow cytometry. The format is cell-based, human. Particulars: in combination with activin. On the procedure:
CHIR99021 is a selective inhibitor of GSK3 that has been reported to mimic the canonical Wnt signal pathway. CHIR99021 was tested as a replacement of wnt3a (e.g. added in combination with activin) in inducing Embryoid bodies and monolayer induction for definitive endoderm cells from hPSCs. […] At day 0, the cells were cultured in a RPMI based medium supplemented with glutamine (2 mM), MTG (4.5×10^−4 M: Sigma), activin A (100 ng/ml), CHIR99021 (0.3 μM) or Wnt3a (25 ng/ml). […] The media was changed every the other day. At day 7, the definitive endoderm was specified to a hepatic fate by treatment with FGF and BMP pathway agonists, as described above.

Test [5] deals with day six EB-derived monolayer cells. In words: Extended activin treatment of EB-derived monolayer cells, flow cytometry. In kind it is cell-based, human. The method, then:
FIG. 3A is an intracellular flow cytometric analysis showing the proportion of SOX17^+ and FOXA2^+ cells in day six activin/Wnt3A-induced EBs as well as in monolayer populations derived from them. The monolayer populations were cultured either directly in the specification media (−activin) or for two days in activin (50 ng/ml) and then in the specification media (+activin). Populations were analyzed following two or four days culture in the specification media (total days eight and 10 for the −activin group and days 10 and 12 for the +activin group). Bars represent standard deviation (SD) of the mean of three independent experiments.
FIG. 3E is a flow cytometric analysis showing the proportion of CD31^+ CD90^+ and EPCAM^+ cells in monolayer populations derived from activin treated (day 26) and non-treated (day 24) endoderm. […] In contrast, a higher portion of EPCAM^+ cells was detected in the population derived from the activin-treated endoderm compared to the population generated from the non-treated cells (EPCAM: 90.7+/−2.7% vs 56.8+/−7.3%; P<0.01, n=3).
It was not known if prolonged signaling would be useful with human PSC. The effect of increasing the duration of this signaling pathway was extended in the human system by culturing the monolayer cells for two days in activin prior to the FGF/BMP4 specification step. […] Without being bound by theory, since the total cell number was lower in the treated population (FIG. 3b) it is possible that activin signaling at this stage preferentially supports the survival of endodermal cells.
(§1) Media was changed every 3 days.
Flow cytometric analyses were performed as described previously^45. For cell surface markers, staining was carried out in PBS with 10% FCS. For intracellular proteins, staining was performed on cells fixed with 4% paraformaldehyde (Electron Microscopy Science, Hatfield, PA, USA) in PBS. Cells were permeabilized with 90% ice-cold methanol for 20 minutes for Sox17 and FoxA2 staining as previously described^45. Albumin and alpha-fetoprotein staining was performed in PBS with 10% FCS and 0.5% saponin (Sigma). Stained cells were analyzed using an LSRII flow cytometer (BD).

Test [6] concerns H9 hESCs, H1 hESCs and 38-2 iPSCs. In words: Hepatic specification from other hPSC lines, flow cytometry. In kind it is cell-based, human.
Description: To determine whether the approach detailed above is broadly applicable to different human pluripotent stem cell lines the protocol was used to differentiate the hESC lines H9 and H1 as well as an induced pluripotent cell (iPSC) line 38-2 to a hepatic fate. Day six EBs from all three lines contained high proportions of CKIT^+CXCR4^+ and CKIT^EPCAM* cells following the Wnt3a/activin induction step (FIG. 7a). Although the proportion of EPCAIVT cells was high in all EBs, the H9-derived cells expressed substantially higher levels of EPCAM than cells generated from the other lines. The levels of EPCAM expression correlated with the degree of endoderm induction, as greater than 95% of the H9-derived population expressed SOX17^+ and FOXA2^+ whereas only 65-70% of the iPSC-derived cells expressed these transcription factors (FIG. 7a). These findings indicate that surface marker analysis alone is not sufficient to monitor endoderm development and that quantitative analyses of SOX17 and FOXA2 expression is required to measure induction of this germ layer. As observed with the HES2 cells, extended activin/nodal signaling improved hepatic development of the CKIT^+CXCR4^+ population from each line (FIG. 7b). However, the duration of activin treatment necessary to generate significant levels of ALB expression varied between cell lines. Whereas higher levels of ALB expression were achieved following two days of activin treatment with H9-derived cells, both H1 and 38-2 cells required four days of additional activin signaling. With this treatment, it was possible to generate cultures consisting of 90%, 85% and 70% ALB^+ cells from the H9, H1 and 38-2 cell lines, respectively (FIG. 7c).
as §1
Flow cytometric analyses were performed as described previously^45. For cell surface markers, staining was carried out in PBS with 10% FCS. For intracellular proteins, staining was performed on cells fixed with 4% paraformaldehyde (Electron Microscopy Science, Hatfield, PA, USA) in PBS. […] Stained cells were analyzed using an LSRII flow cytometer (BD).

The subject of test [7] is hESC-derived embryoid bodies. In words: Endoderm induction in hESC-derived embryoid bodies, flow cytometry. Particulars: day six EBs. The format is cell-based, human. On the procedure: Similar to protocols using monolayer cultures^16, it involves specific steps that recapitulate the critical stages of liver development in the early embryo. EBs are formed from small aggregates by culture for 24 hours in low levels of BMP4, as previously described^18. The EBs are subsequently exposed to high concentrations of activin A (hereafter referred to as activin) for five days to induce definitive endoderm, a population defined by expression of the surface markers CXCR4, CKIT and EPCAM and the transcription factors SOX17 and FOXA2.
Addition of Wnt3A to the activin-induced EB cultures led to reproducible increases in the proportion of CXCR4^+, SOX17^+ and FOXA2^+ cells within the EBs (FIG. 1c). With the increase in CXCR4 expression, the proportion of CKIT^+CXCR4^+ and CXCR4^+EPCAM^+ cells increased to greater than 95% of the population. […] Endoderm induction in the EBs was influenced by the base culture media used. StemPro34 supported more efficient endoderm induction than neural basal media that we used previously (FIG. 1f). The induction of highly enriched endoderm is an important first step in the efficient and reproducible generation of hepatocyte-like cells from hPSCs.
as §1
Flow cytometric analyses were performed as described previously^45. […] Stained cells were analyzed using an LSRII flow cytometer (BD).

[8] abbreviates: day 10/12, two days activin 50 ng/ml before specification media.
Where [9] appears, read: monolayer from activin treated endoderm, day 26.

T1 sequence (P13569 whole entry): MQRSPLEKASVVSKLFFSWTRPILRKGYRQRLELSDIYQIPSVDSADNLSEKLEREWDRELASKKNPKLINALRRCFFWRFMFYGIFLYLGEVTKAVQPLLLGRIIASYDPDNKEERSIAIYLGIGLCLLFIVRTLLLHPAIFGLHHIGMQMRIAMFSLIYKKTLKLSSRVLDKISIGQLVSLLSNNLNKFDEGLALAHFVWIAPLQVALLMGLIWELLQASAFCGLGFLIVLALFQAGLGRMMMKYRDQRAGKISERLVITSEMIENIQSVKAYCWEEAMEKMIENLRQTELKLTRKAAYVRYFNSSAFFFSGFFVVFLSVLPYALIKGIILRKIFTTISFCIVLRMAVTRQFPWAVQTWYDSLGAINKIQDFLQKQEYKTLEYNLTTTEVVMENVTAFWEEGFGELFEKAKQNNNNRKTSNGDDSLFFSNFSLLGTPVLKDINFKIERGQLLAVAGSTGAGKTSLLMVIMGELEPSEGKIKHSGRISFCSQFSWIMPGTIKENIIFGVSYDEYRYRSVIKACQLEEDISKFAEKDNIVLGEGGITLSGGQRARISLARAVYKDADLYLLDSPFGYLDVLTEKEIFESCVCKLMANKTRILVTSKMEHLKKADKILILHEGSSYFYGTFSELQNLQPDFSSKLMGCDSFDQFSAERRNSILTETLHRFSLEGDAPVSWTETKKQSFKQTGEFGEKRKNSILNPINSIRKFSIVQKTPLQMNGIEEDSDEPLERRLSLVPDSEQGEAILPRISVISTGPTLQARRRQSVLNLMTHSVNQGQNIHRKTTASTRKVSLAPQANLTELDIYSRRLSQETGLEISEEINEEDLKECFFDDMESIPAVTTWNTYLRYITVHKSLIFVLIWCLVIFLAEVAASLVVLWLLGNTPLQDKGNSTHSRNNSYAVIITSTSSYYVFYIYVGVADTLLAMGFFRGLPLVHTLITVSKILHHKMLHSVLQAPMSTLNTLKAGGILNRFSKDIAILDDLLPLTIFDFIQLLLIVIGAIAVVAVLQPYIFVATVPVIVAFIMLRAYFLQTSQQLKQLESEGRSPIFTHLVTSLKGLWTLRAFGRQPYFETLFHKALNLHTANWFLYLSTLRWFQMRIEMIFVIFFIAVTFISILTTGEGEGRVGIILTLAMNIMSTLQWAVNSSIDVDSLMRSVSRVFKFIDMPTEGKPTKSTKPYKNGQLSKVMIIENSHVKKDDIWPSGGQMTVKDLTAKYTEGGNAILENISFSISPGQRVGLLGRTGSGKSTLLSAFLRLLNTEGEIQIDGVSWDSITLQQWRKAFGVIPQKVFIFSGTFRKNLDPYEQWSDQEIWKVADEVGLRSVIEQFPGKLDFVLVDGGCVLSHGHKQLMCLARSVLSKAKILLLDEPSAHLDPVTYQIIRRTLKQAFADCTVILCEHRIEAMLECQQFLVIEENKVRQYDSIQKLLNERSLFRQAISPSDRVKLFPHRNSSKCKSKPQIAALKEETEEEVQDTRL

Consider `O=C(O)c1ccc(/C=C2\SC(=S)N(c3cccc(C(F)(F)F)c3)C2=O)cc1` [CFTRinh-172], for which the cyst formation entry in test [1] is reported as “delayed”. In addition, the “effect on Forskolin/IBMX induced swelling” value in test [2] is reported as “blocked”.

For `Cc1c[nH]c(-c2cnc(NCCNc3ccc(C#N)cn3)nc2-c2ccc(Cl)cc2Cl)n1` [CHIR 99021], in test [3], the “effect on other kinases” value is “little effect”. For the same compound, in test [4], the “proportion of CKIT+CXCR4+ and CXCR4+EPCAM+ cells” value is “greater than 95%”.

With activin: Activin A, nodal agonist, in test [5] (setting [8]), the “proportion of FOXA2+ cells” value is 92.7+/−2.5% and the “proportion of SOX17+ cells” value is recorded as 73.3+/−7.5%. For the same compound, the “proportion of FOXA2+ cells” value in test [5] (days 8/10, two days activin 50 ng/ml before specification media) is listed as 96.1+/−0.9%. Also, in test [5] (setting [9]), the “proportion of CD31+ cells” value is reported as 0.49+/−0.11%, the “proportion of CD90+ cells” value is reported as 8.5+/−1.19% and the “proportion of EPCAM+ cells” value is 90.7+/−2.7%. Also, in test [6] (38-2, four days additional activin), the “ALB+ cells” value is 70%. The “ALB+ cells” value in test [6] (H1, four days additional activin) is recorded as 85%. In addition, the “ALB+ cells” value in test [6] (H9, two days additional activin) amounted to 90%. Moreover, the “proportion co-expressing CXCR4 and CKIT or CXCR4 and EPCAM” value in test [7] was “greater than 90%”.
